Experimental data from patent US20160158184A1, “SELF-EMULSIFYING COMPOSITION OF OMEGA3 FATTY ACID” (priority 2013, published 2016).

Assay: Pharmacokinetics in beagles (Test Example 5)
Format: in vivo
Design: unit not given beside the values
Settings: male beagles fasted 18 hours or more, oral, 600 mg of EPA-E, plasma EPA, corrected for pre-dose value
Experimental: The composition or the capsule prepared was orally administered to 6 male beagles (at the age of 2 to 6 years with the body weight of 8 to 13 kg, 3 Marshall beagles and 3 Nosan beagles) under fasting conditions, and blood EPA concentration was evaluated. The test animals were fasted 18 hours or more before the administration, and each animal was administered with the composition at an amount corresponding to 600 mg of the EPA-E. Blood was collected before the administration, and 0.5, 1, 1.5, 2, 3, 4, 6, 8, and 24 hours after the administration, and plasma was separated to measure plasma EPA concentration by LC/MS/MS (a method of separating a sample by liquid chromatography and separating the resultant components by mass spectrometry for measurement). The control group was administered with the EPA-E stock solution encapsulated in a capsule. […] In the calculation of each parameter, the value was corrected by subtracting the blood EPA concentration before the administration of the composition.

`CC/C=C\C/C=C\C/C=C\C/C=C\C/C=C\CCCC(=O)OCC` [Comp. Ex. 5, Ethyl eicosapentaenoate ester] gave an AUC0-2 (0 to 2 hours) of 11.3 and an AUC0-24 (0 to 24 hours) of 76.6.
